In brackets after ≈: the same amount, converted by molar mass. Where a SMILES comes first, the peptide text is derived from it.
How the values were obtained:
[1] = tested on: S. epidermidis; assay: microbe, parasite or virus in culture; assay type: cell-based, Staphylococcus epidermidis
In short: (§1)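 MIC read-out = lowest peptide level with no bacterial proliferation. Strains diluted in MH medium to 2×10^6 CFU; peptide twofold serial dilutions in MH added 1:1 in microtiter wells.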

[2] = tested on: MDRST 8009; assay type: cell-based, Salmonella typhimurium; details: agent alone
In short: as §1

[3] = tested on: P. aeruginosa; assay: microbe, parasite or virus in culture; assay type: cell-based, Pseudomonas aeruginosa
In short: as §1

[4] = tested on: MDREC 1238; assay type: cell-based, Escherichia coli
In short: as §1

[5] = tested on: MDRAB 12035; assay: MIC of antibiotic during combined treatment with antimicrobial peptide; assay type: cell-based, Acinetobacter baumannii
In short: (§2)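 Strains in MH medium at 2×10^6 CFU/ml were mixed with peptide diluted stepwise (2:1) from its MIC, then antibiotic dilutions in MH medium were added to give the antibiotic MIC. The reversed set-up, peptide titrated against fixed antibiotic, gave the peptide MIC.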

[6] = tested on: E. coli; assay: as above; assay type: cell-based, Escherichia coli; details: E. coli
In short: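 Read-out is the MIC of each combined solution, obtained from MH-medium dilutions of antibiotic added well by well, with a reversed-condition run as well.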

[7] = tested on: MDRAB 12035; assay: MIC of antimicrobial peptide during combined treatment with antibiotic; assay type: cell-based, Acinetobacter baumannii
In short: as §2

[8] = peptide treatment concentration 1 μg/ml
[9] = peptide treatment concentration 2 μg/ml
[10] = peptide treatment concentration 4 μg/ml
[11] = peptide treatment concentration 6 μg/ml
[12] = peptide treatment concentration 8 μg/ml
[13] = peptide treatment concentration 16 μg/ml
[14] = peptide treatment concentration 32 μg/ml
[15] = peptide treatment concentration 64 μg/ml

Question: How did the “Minimal inhibitory concentration MIC” value [1] turn out when CC[C@H](C)[C@H](NC(=O)[C@H](CCCCN)NC(=O)[C@H](Cc1c[nH]c2ccccc12)NC(=O)[C@@H](N)CCCNC(=N)N)C(=O)N[C@@H](Cc1ccccc1)C(=O)N[C@@H](CCCCN)C(=O)N[C@@H](CCCCN)C(=O)N[C@H](C(=O)N1CCC[C@H]1C(=O)N[C@@H](CCCCN)C(=O)N[C@@H](Cc1ccccc1)C(=O)N[C@@H](CC(C)C)C(=O)N[C@@H](Cc1c[nH]cn1)C(=O)N[C@@H](CO)C(=O)N[C@@H](C)C(=O)N[C@@H](CCCCN)C(=O)N[C@@H](CCCCN)C(=O)N[C@@H](Cc1ccccc1)C(N)=O)[C@@H](C)CC [PapMA-1, RWK IFK KIP KFL HSA KKF-NH2] (H-RWKIFKKIPKFLHSAKKF-NH2; N-terminus assumed) was run?
Answer: Its value is >128 µg/mL.

Question: What about the “Minimal inhibitory concentration MIC” value [2] of the same compound?
Answer: Its value is 64 µg/mL (≈ 27.8 µM).

Question: What about the “Minimal inhibitory concentration MIC” value [3] of the same compound?
Answer: Its value is 16 µg/mL (≈ 6.95 µM).

Question: What about the “Minimal inhibitory concentration MIC” value [4] of the same compound?
Answer: The value was 64 µg/mL (≈ 27.8 µM).

Question: What about the “Erythromycin MIC during combined treatment with peptide” value [5, 8] of the same compound?
Answer: The value was 32 µg/mL.

Question: And the “Linezolid MIC during combined treatment with peptide” value [5, 8]?
Answer: The value was >128 µg/mL.

Question: And the “Vancomycin MIC during combined treatment with peptide” value [5, 8]?
Answer: The value was >128 µg/mL.

Question: And the “Erythromycin MIC during combined treatment with peptide” value [5, 9]?
Answer: Its value is 32 µg/mL.

Question: And the “Linezolid MIC during combined treatment with peptide” value [5, 9]?
Answer: Its value is 128 µg/mL.

Question: What about the “Vancomycin MIC during combined treatment with peptide” value [5, 9] of the same compound?
Answer: The value was >128 µg/mL.

Question: What about the “Erythromycin MIC during combined treatment with peptide” value [5, 10] of the same compound?
Answer: Its value is 16 µg/mL.

Question: What about the “Linezolid MIC during combined treatment with peptide” value [5, 10] of the same compound?
Answer: Its value is 64 µg/mL.

Question: What about the “Vancomycin MIC during combined treatment with peptide” value [5, 10] of the same compound?
Answer: Its value is 128 µg/mL.

Question: What about the “Erythromycin MIC during combined treatment with peptide” value [5, 11] of the same compound?
Answer: The value was 4 µg/mL.

Question: And the “Linezolid MIC during combined treatment with peptide” value [5, 11]?
Answer: The value was 32 µg/mL.

Question: And the “Vancomycin MIC during combined treatment with peptide” value [5, 11]?
Answer: The value was 32 µg/mL.

Question: What about the “Erythromycin MIC during combined treatment with peptide” value [5, 12] of the same compound?
Answer: Its value is 0.5 µg/mL.

Question: And the “Linezolid MIC during combined treatment with peptide” value [5, 12]?
Answer: The value was 16 µg/mL.

Question: And the “Vancomycin MIC during combined treatment with peptide” value [5, 12]?
Answer: The value was 16 µg/mL.

Question: What about the “Erythromycin MIC during combined treatment with peptide” value [5, 13] of the same compound?
Answer: Its value is 0.25 µg/mL.

Question: What about the “Linezolid MIC during combined treatment with peptide” value [5, 13] of the same compound?
Answer: Its value is 8 µg/mL.

Question: What about the “Vancomycin MIC during combined treatment with peptide” value [5, 13] of the same compound?
Answer: The value was 16 µg/mL.

Question: And the “Erythromycin MIC during combined treatment with peptide” value [5, 14]?
Answer: The value was 0.125 µg/mL.

Question: And the “Linezolid MIC during combined treatment with peptide” value [5, 14]?
Answer: The value was 4 µg/mL.

Question: What about the “Vancomycin MIC during combined treatment with peptide” value [5, 14] of the same compound?
Answer: Its value is 8 µg/mL.

Question: And the “Erythromycin MIC during combined treatment with peptide” value [5, 15]?
Answer: The value was 0 µg/mL.

Question: And the “Linezolid MIC during combined treatment with peptide” value [5, 15]?
Answer: The value was 0 µg/mL.

Question: What about the “Vancomycin MIC during combined treatment with peptide” value [5, 15] of the same compound?
Answer: The value was 0 µg/mL.

Question: What about the “Antibiotic MIC, Erythromycin” value ([6]; erythromycin combined with peptide at 1 μg/ml) of the same compound?
Answer: Its value is 64 µg/mL.

Question: What about the “Antibiotic MIC, Erythromycin” value ([6]; erythromycin combined with peptide at 2 μg/ml) of the same compound?
Answer: The value was 32 µg/mL.

Question: And the “Antibiotic MIC, Erythromycin” value ([6]; erythromycin combined with peptide at 4 μg/ml)?
Answer: The value was 16 µg/mL.

Question: What about the “Antibiotic MIC, Erythromycin” value ([6]; erythromycin combined with peptide at 6 μg/ml) of the same compound?
Answer: Its value is 4 µg/mL.

Question: And the “Antibiotic MIC, Erythromycin” value ([6]; erythromycin combined with peptide at 8 μg/ml)?
Answer: The value was 2 µg/mL.

Question: What about the “Antibiotic MIC, Erythromycin” value ([6]; erythromycin combined with peptide at 16 μg/ml) of the same compound?
Answer: The value was 0.5 µg/mL.

Question: And the “Antibiotic MIC, Erythromycin” value ([6]; erythromycin combined with peptide at 32 μg/ml)?
Answer: Its value is 0.125 µg/mL.

Question: What about the “Antibiotic MIC, Erythromycin” value ([6]; erythromycin combined with peptide at 64 μg/ml) of the same compound?
Answer: The value was 0 µg/mL.

Question: And the “Antibiotic MIC, Linezolid” value ([6]; linezolid combined with peptide at 1 μg/ml)?
Answer: The value was 128 µg/mL.

Question: And the “Antibiotic MIC, Linezolid” value ([6]; linezolid combined with peptide at 2 μg/ml)?
Answer: Its value is 128 µg/mL.

Question: What about the “Antibiotic MIC, Linezolid” value ([6]; linezolid combined with peptide at 4 μg/ml) of the same compound?
Answer: Its value is 64 µg/mL.

Question: And the “Antibiotic MIC, Linezolid” value ([6]; linezolid combined with peptide at 6 μg/ml)?
Answer: Its value is 16 µg/mL.

Question: What about the “Antibiotic MIC, Linezolid” value ([6]; linezolid combined with peptide at 8 μg/ml) of the same compound?
Answer: The value was 16 µg/mL.

Question: And the “Antibiotic MIC, Linezolid” value ([6]; linezolid combined with peptide at 16 μg/ml)?
Answer: The value was 16 µg/mL.

Question: What about the “Antibiotic MIC, Linezolid” value ([6]; linezolid combined with peptide at 32 μg/ml) of the same compound?
Answer: The value was 8 µg/mL.

Question: What about the “Antibiotic MIC, Linezolid” value ([6]; linezolid combined with peptide at 64 μg/ml) of the same compound?
Answer: The value was 0 µg/mL.

Question: What about the “Antibiotic MIC, Vancomycin” value ([6]; vancomycin combined with peptide at 1 μg/ml) of the same compound?
Answer: Its value is >128 µg/mL.

Question: What about the “Antibiotic MIC, Vancomycin” value ([6]; vancomycin combined with peptide at 2 μg/ml) of the same compound?
Answer: Its value is >128 µg/mL.

Question: And the “Antibiotic MIC, Vancomycin” value ([6]; vancomycin combined with peptide at 4 μg/ml)?
Answer: The value was >128 µg/mL.

Question: What about the “Antibiotic MIC, Vancomycin” value ([6]; vancomycin combined with peptide at 6 μg/ml) of the same compound?
Answer: Its value is 32 µg/mL.

Question: And the “Antibiotic MIC, Vancomycin” value ([6]; vancomycin combined with peptide at 8 μg/ml)?
Answer: Its value is 32 µg/mL.

Question: What about the “Antibiotic MIC, Vancomycin” value ([6]; vancomycin combined with peptide at 16 μg/ml) of the same compound?
Answer: The value was 16 µg/mL.

Question: And the “Antibiotic MIC, Vancomycin” value ([6]; vancomycin combined with peptide at 32 μg/ml)?
Answer: Its value is 4 µg/mL.

Question: What about the “Antibiotic MIC, Vancomycin” value ([6]; vancomycin combined with peptide at 64 μg/ml) of the same compound?
Answer: The value was 0 µg/mL.

Question: What about the “Peptide MIC during treatment with erythromycin” value (shortened to “Peptide MIC during treatment”) ([7]; erythromycin 4 μg/ml (Conc./MIC 1/8)) of the same compound?
Answer: Its value is 4 µg/mL.

Question: And the “MIC of peptide in combination as fraction of the MIC of the peptide alone” value ([7]; erythromycin 8 μg/ml)?
Answer: Its value is 1/16.

Question: And the “MIC value of peptide during combined treatment with erythromycin” value ([7]; erythromycin 8 μg/ml (1/4 of its MIC))?
Answer: Its value is 4 µg/mL.

Question: And the “Peptide MIC during treatment” value ([7]; erythromycin 8 μg/ml (Conc./MIC 1/4))?
Answer: Its value is 4 µg/mL.

Question: What about the “Peptide MIC during treatment” value ([7]; erythromycin 16 μg/ml (Conc./MIC 1/2)) of the same compound?
Answer: Its value is 4 µg/mL.

Question: And the “Peptide MIC during treatment” value ([7]; erythromycin 32 μg/ml (Conc./MIC 1))?
Answer: Its value is 0 µg/mL.

From patent publication US11214594B2, “Antimicrobial peptide having synergistic antibacterial effect with antibiotics on multidrug resistant bacteria, and use thereof” (priority 2016, dated 2022)
